Entries after “also recorded” stand apart in the source; their conditions may differ.
Key:
[1] = tested on: E. coli ATCC 25922; experiment: Kirby-Bauer disk test (zone of inhibition); type: cell-based; details: amount 17.5 nmol per disk, HFBA salts except 1* (sulphate)
Description: Antibiotic disks preparation. Paper disks (6 mm diameter, BBL Microbiology Systems) were wetted through with 20, 25, 30 and 35 μL of a solution containing the antibiotic sample at a concentration of 0.5 nmol/μL. The wet disks were dried in a desiccator overnight, and used the next day.
Culture preparation. A colony picked from a freshly made plate of the bacteria strain E. coli ATCC 25922 was used to inoculate 20 mL of Mueller-Hinton broth and the obtained culture was grown overnight at 37° C. and 250 RPM shaking.
Kirby-Bauer test procedure. A new culture was made adding 1 mL of overnight culture in 99 mL of fresh Mueller-Hinton broth. The culture was grown at 37° C. and 250 RPM shaking until it reached an OD600 of 0.132 (0.5 McFarland) and a series of Mueller-Ilinton-Agar plates preheated at 37° C. were inoculated spreading 200 μL of that culture with sterile cotton. The plates were then dried for 30 minutes. Then on each plate 3 or 4 antibiotic paper disks were placed. The plates were incubated overnight at 37° C. and subsequently the diameter of the inhibition growth zone was measured.

[2] = tested on: E. coli ATCC 25922; experiment: Minimum Inhibitory Concentration (MIC) test; type: cell-based; details: for MIC: E. coli ATCC 25922, Mueller-Hinton broth, overnight 37° C., HFBA salts except 1* (sulphate); for antimicrobial activity against E. coli ATCC 25922 (in words): Kirby-Bauer Disk Test and MIC, summary statement
Description: All test solutions contained 40 nmol of antibiotic. After drying, the samples were resuspended in 100 μL of Mueller-Hinton broth. Each solution of antibiotic in broth media was pipetted in the first lane of a 96 well plate (volume of well 500 μL). The remaining lanes were filled with 50 μL of E. coli ATCC 25922 culture with an OD600 of 0.264. Series of 2-fold dilution were made removing from the first lane 50 μL of the antibiotic solution and resuspending it with the culture contained in the next well. At the end, all wells were filled with 100 μL of E. coli ATCC 25922 culture in Mueller-Hinton with an OD600 of 0.132 (0.5 McFarland) and the appropriate amount of antibiotic. The 96-well plates were incubated overnight at 37° C. and 350 RPM shaking.

Compound | Diameter (zones of inhibition as determined by Kirby-Bauer disk method) [1] [mm] | MIC [2] [µM] | MIC ([2]; Escherichia coli, ATCC25922) [µM] | antimicrobial activity against E. coli ATCC 25922 (in words) [2]
NCC1OC(OC2C(CO)OC(OC3C(O)C(N)CC(N)C3OC3OC(CN)C(O)C(O)C3N)C2O)C(N)C(O)C1O.O=C(O)C(F)(F)C(F)(F)C(F)(F)F.O=C(O)C(F)(F)C(F)(F)C(F)(F)F.O=C(O)C(F)(F)C(F)(F)C(F)(F)F.O=C(O)C(F)(F)C(F)(F)C(F)(F)F.O=C(O)C(F)(F)C(F)(F)C(F)(F)F.O=C(O)C(F)(F)C(F)(F)C(F)(F)F (centres unmarked) [1^, neomycin B×6 HFBA, reference compound] | 16.1 | 3.1 | – | –
NC[C@@H]1O[C@H](O[C@H]2[C@@H](O)[C@H](O[C@@H]3[C@@H](O)[C@H](N)C[C@H](N)[C@H]3O[C@H]3O[C@H](CO)[C@@H](O)[C@H](O)[C@H]3N)O[C@@H]2CO)[C@H](N)[C@@H](O)[C@@H]1O [2^, paromomycin, reference compound] | 13.2 | – | 12.5 | –
CC(=O)NCC1O[C@H](OC2C(O)[C@H](OC3C(O)[C@H](N)CC(N)[C@H]3O[C@H]3OC(CN)[C@@H](O)C(O)C3N)O[C@@H]2CO)C(N)C(O)[C@@H]1O (some centres unmarked) [5a, N^6(VI)-acetyl neomycin B] | 13.9 | – | 6.3 | still highly active
CC(C)C(=O)NCC1O[C@H](OC2C(O)[C@H](OC3C(O)[C@H](N)CC(N)[C@H]3O[C@H]3OC(CN)[C@@H](O)C(O)C3N)O[C@@H]2CO)C(N)C(O)[C@@H]1O (some centres unmarked) [compound 6] | 11.5 | – | 12.5 | still highly active; also recorded: same biological activity as paromomycin 2
neomycin B [compound 1, reference compound] | – | 3.1 | – | –
